Measurements from the supplement of paper PMC10307832.

Legend:
Assay in all cases: relative viability (nuclei count vs DMSO), 5 days (fraction); higher = more cells survive
Alisertib + Bortezomib = compound: COc1cc(Nc2ncc3c(n2)-c2ccc(Cl)cc2C(c2c(F)cccc2OC)=NC3)ccc1C(=O)O [Alisertib] + CC(C)C[C@H](NC(=O)[C@H](Cc1ccccc1)NC(=O)c1cnccn1)B(O)O [Bortezomib] (partner 0.002 µM)
How it was run: (§1)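 Lung cancer cell lines, seeded in 1536-well plates, were treated the following day by pin tool with a single drug or with five library-drug doses (not always all listed) in √10 steps on top of a fixed anchor-drug dose. Cells were fixed and nuclei stained in one step after 5 days, and nuclei were counted. Relative viability is the nuclei count for treated wells divided by that for vehicle wells, reported as medians of duplicate plates.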

Alisertib + Pictilisib = compound: COc1cc(Nc2ncc3c(n2)-c2ccc(Cl)cc2C(c2c(F)cccc2OC)=NC3)ccc1C(=O)O [Alisertib] + CS(=O)(=O)N1CCN(Cc2cc3nc(-c4cccc5[nH]ncc45)nc(N4CCOCC4)c3s2)CC1 [Pictilisib] (partner 1 µM)
How it was run: as §1

Alisertib + Olaparib = compound: COc1cc(Nc2ncc3c(n2)-c2ccc(Cl)cc2C(c2c(F)cccc2OC)=NC3)ccc1C(=O)O [Alisertib] + O=C(c1cc(Cc2n[nH]c(=O)c3ccccc23)ccc1F)N1CCN(C(=O)C2CC2)CC1 [Olaparib] (partner 8 µM)
How it was run: as §1

Alisertib + Trametinib = compound: COc1cc(Nc2ncc3c(n2)-c2ccc(Cl)cc2C(c2c(F)cccc2OC)=NC3)ccc1C(=O)O [Alisertib] + CC(=O)Nc1cccc(-n2c(=O)n(C3CC3)c(=O)c3c(Nc4ccc(I)cc4F)n(C)c(=O)c(C)c32)c1 [Trametinib] (partner 0.02 µM)
How it was run: as §1

Cell Line	relative viability (Alisertib + Bortezomib; first compound 0.005 µM)	relative viability (Alisertib + Bortezomib; first compound 0.01581 µM)	relative viability (Alisertib + Bortezomib; first compound 0.05 µM)	relative viability (Alisertib + Bortezomib; first compound 0.1581 µM)	relative viability (Alisertib + Bortezomib; first compound 0.5 µM)	relative viability (Alisertib + Pictilisib; first compound 0.005 µM)	relative viability (Alisertib + Pictilisib; first compound 0.01581 µM)	relative viability (Alisertib + Pictilisib; first compound 0.05 µM)	relative viability (Alisertib + Pictilisib; first compound 0.1581 µM)	relative viability (Alisertib + Pictilisib; first compound 0.5 µM)	relative viability (Alisertib + Olaparib; first compound 0.005 µM)	relative viability (Alisertib + Olaparib; first compound 0.01581 µM)	relative viability (Alisertib + Olaparib; first compound 0.05 µM)	relative viability (Alisertib + Olaparib; first compound 0.1581 µM)	relative viability (Alisertib + Olaparib; first compound 0.5 µM)	relative viability (Alisertib + Trametinib; first compound 0.005 µM)	relative viability (Alisertib + Trametinib; first compound 0.01581 µM)	relative viability (Alisertib + Trametinib; first compound 0.05 µM)	relative viability (Alisertib + Trametinib; first compound 0.1581 µM)	relative viability (Alisertib + Trametinib; first compound 0.5 µM)
ChaGo-K-1	0.88	0.696	0.322	0.276	0.232	0.632	0.457	0.267	0.283	0.184	0.355	0.339	0.174	0.17	0.154	0.772	0.795	0.213	0.191	0.159
EBC-1	0.537	0.467	0.239	0.186	0.162	0.394	0.282	0.112	0.158	0.121	0.609	0.478	0.195	0.216	0.132					
EKVX	0.967	0.8	0.391	0.185	0.169	0.405	0.418	0.266	0.157	0.15	0.848	0.674	0.282	0.207	0.203	0.319	0.37	0.18	0.16	0.155
EMC-BAC-2	0.91	0.947	0.579	0.229	0.243	0.516	0.414	0.291	0.271	0.233	0.452	0.356	0.291	0.294	0.214	0.839	0.681	0.439	0.347	0.304
EPLC-272H	0.794	0.856	0.79	0.135	0.13	0.281	0.244	0.227	0.14	0.124	0.671	0.471	0.293	0.0899	0.116	0.258	0.278	0.275	0.179	0.158
H3255	0.664	0.733	0.46	0.216	0.195	0.472	0.447	0.286	0.165	0.152	0.547	0.566	0.385	0.292	0.24	0.662	0.637	0.441	0.309	0.295
HARA	1.06	1.11	0.651	0.191	0.108	0.283	0.426	0.511	0.112	0.0803	0.763	0.703	0.17	0.328	0.146	0.722	0.769	0.348	0.12	0.207
HCC-15	0.941	0.901	0.48	0.164	0.118	0.586	0.64	0.233	0.117	0.123	0.689	0.444	0.191	0.165	0.145	0.356	0.286	0.175	0.122	0.113
